Test results reported in patent publication US12281304B2, “Compositions and methods for treating and preventing muscular disorders and dystrophies, steroid side effects, and inflammation” (Children's National Medical Center, priority 2018, dated 2025).

Tested on: miRNAs in diaphragm muscle of mdx mice
Assay: TaqMan low-density array (TLDA) miRNA profiling of diaphragm, discovery set (prophylactic mdx trial)
Format: in vivo, mouse
Details: mdx diaphragm, vs untreated mdx; Pred 5 mg/kg, Vam 15 mg/kg
Excerpt: Archival muscle samples (diaphragm) from two separate preclinical studies were obtained, with each trial showing a significant benefit from both prednisolone and vamorolone drug treatments (23). Prednisolone was used because it is the active form of prednisone, the current DMD standard of care. The first, “discovery set” of diaphragm muscles was from a prophylactic trial design where 2-week old (postnatal day 15) mdx or wild type control mice received oral dosing for 6 weeks with vehicle (cherry syrup), prednisolone (5 mg/kg), or vamorolone (15 mg/kg) as previously reported (23). The second, “validation set” of diaphragm muscles was from an extended trial in older mice where mdx or wild type mice were subjected to treadmill running to unmask mild phenotypes. Mice in this validation set were treated with either vehicle, prednisolone (5 mg/kg) or vamorolone (45 mg/kg) for four months beginning at two months of age (23). At the endpoint of each trial, diaphragm muscles were harvested and frozen in liquid nitrogen-cooled isopentane.
We extracted total RNA from 5 diaphragm muscles per treatment group in the discovery set of samples from 8-week old mice. RNA was extracted using a modified TRIzol protocol with isopropanol precipitation at −20° C. overnight. This RNA was reverse transcribed to cDNA using a High Capacity cDNA Reverse Transcription Kit with RNase Inhibitor (ThermoFisher; Carlsbad, Calif.), with miRNA-specific Megaplex RT Primers, Rodent Pools Set version 3.0 (ThermoFisher; Carlsbad, Calif.). Levels of each of the miRNAs were profiled in the discovery set using TAQMAN Array Rodent MiRNA A+B Cards Set v3.0 (ThermoFisher; Carlsbad, Calif.).
In the discovery set experiments, levels of each miRNA were quantified in TaqMan low-density arrays using ThermoFisher Cloud software with the Relative Quantification Application (ThermoFisher; Carlsbad, Calif.) tool. Data was analyzed by ANOVA with post-hoc comparison of each group to the mdx vehicle-treated group. […] A P-value of P≤0.05 was set as the significance threshold, without adjustment for multiple comparisons. To reduce false-positive discovery in this setting, an evidence-based approach was used to identify efficacy associated miRNAs where 1) results from the multiple groups were cross-referenced, and 2) all candidate miRNAs identified in this discovery set were then assayed in a separate validation set of mice. For the validation set experiments, levels of each individual miRNA were assayed in samples from a second, independent preclinical trial in adult mdx mice. Data from individual TaqMan Assays was quantified using QuantStudio Real-Time PCR version 1.3 software (Applied Biosystems; Foster City, Calif.). The levels of all miRNAs were normalized to the geometric mean of multiple control genes (60, 70). Comparison of groups was made by ANOVA with Holm-Sidak post-hoc test comparing each group to mdx vehicle.
To visualize behavior of miRNAs within individual mice for each group, heat map images were generated. Heat maps were generated using Rq values of TLDA array data exported from the Relative Quantification Application of the ThermoFisher Cloud software (ThermoFisher; Carlsbad, Calif.) tool. Heat maps of miRNA expression were produced using Hierarchical Clustering Explorer Version 3.5 (at www.cs.umd.edu/hcil/multi-cluster/) produced by the Human Computer Interaction Laboratory (University of Maryland; College Park, Md.).
To examine miRNA expression TaqMan low density qPCR array cards were used to profile approximately 750 miRNAs within diaphragm muscle from a discovery set of mice. Samples for this experiment came from a trial that utilized a prophylactic approach (23). Briefly, mdx mice undergo a stage of peak severity characterized by widespread inflammation and necrosis from approximately 3-8 weeks of age, followed by a recovery stage where mice show milder phenotypes (25). […]

Structure (SMILES): C[C@]12C=CC(=O)C=C1CC[C@@H]1[C@@H]2[C@@H](O)C[C@@]2(C)[C@H]1CC[C@]2(O)C(=O)CO [prednisolone]
- Rq mmu-miR-214-002306: 0.898
- Rq mmu-miR-215-001200: 0.792
- Rq mmu-miR-218-000521: 0.615
- Rq mmu-miR-221-000524: 0.687
- Rq mmu-miR-222-002276: 0.666
- Rq mmu-miR-223-002295: 0.804
- Rq mmu-miR-296-5p-000527: 1.035
- Rq mmu-miR-301a-000528: 0.687
- Rq mmu-miR-301b-002600: 0.862
- Rq mmu-miR-322-001076: 0.67
- Rq mmu-miR-324-3p-002509: 0.713
- Rq mmu-miR-324-5p-000539: 0.859
- Rq mmu-miR-328-000543: 0.888
- Rq mmu-miR-335-3p-002185: 1.354
- Rq mmu-miR-335-5p-000546: 0.756
- Rq mmu-miR-337-3p-002532: 0.853
- Rq mmu-miR-338-3p-002252: 0.469
- Rq mmu-miR-339-5p-002257: 0.652
- Rq mmu-miR-340-3p-002259: 0.581
- Rq mmu-miR-340-5p-002258: 0.602
- Rq mmu-miR-342-3p-002260: 0.407
- Rq mmu-miR-342-5p-002527: 0.529
- Rq mmu-miR-345-5p-002528: 0.713
- Rq mmu-miR-350-002530: 0.796
- Rq mmu-miR-362-3p-002616: 0.936
- Rq mmu-miR-362-5p-002614: 1.241
- Rq mmu-miR-369-3p-000557: 1.192
- Rq mmu-miR-369-5p-001021: 1.211
- Rq mmu-miR-370-002275: 1.975
- Rq mmu-miR-376a#-002482: 1.351
- Rq mmu-miR-376a-001069: 1.484
- Rq mmu-miR-376b#-002451: 1.084
- Rq mmu-miR-376b-002452: 1.602
- Rq mmu-miR-376c-002450: 0.966
- Rq mmu-miR-379-001138: 1.085
- Rq mmu-miR-380-5p-002601: 1.287
- Rq mmu-miR-381-000571: 1.359
- Rq mmu-miR-382-000572: 1.017
- Rq mmu-miR-383-001767: 0.551
- Rq mmu-miR-384-5p-002602: 0.618
- Rq mmu-miR-409-3p-002332: 1.906
- Rq mmu-miR-410-001274: 1.676
- Rq mmu-miR-411-001610: 1.171
- Rq mmu-miR-431-001979: 1.819
- Rq mmu-miR-433-001028: 2.288
- Rq mmu-miR-434-5p-002581: 1.271
- Rq mmu-miR-450a-5p-002303: 1.051
- Rq mmu-miR-455-002455: 0.612
- Rq mmu-miR-467F-002886: 1.346
- Rq mmu-miR-467a-002587: 0.751
- Rq mmu-miR-467c-002517: 0.992
- Rq mmu-miR-483#-002560: 1.367
- Rq mmu-miR-486-001278: 0.917
- Rq mmu-miR-487b-001285: 1.43
- Rq mmu-miR-489-001302: 0.792
- Rq mmu-miR-491-001630: 0.776
- Rq mmu-miR-493-002519: 2.641
- Rq mmu-miR-494-002365: 1.025
- Rq mmu-miR-495-001663: 1.448
- Rq mmu-miR-497-001346: 0.482
- Rq mmu-miR-500-002606: 0.935
- Rq mmu-miR-501-3p-001651: 0.97
- Rq mmu-miR-503-002456: 0.923
- Rq mmu-miR-511-002549: 0.48
- Rq mmu-miR-532-3p-002355: 1.067
- Rq mmu-miR-532-5p-001518: 1.087
- Rq mmu-miR-540-3p-001310: 0.908
- Rq mmu-miR-541-002562: 1.165
- Rq mmu-miR-542-3p-001284: 1.123
- Rq mmu-miR-542-5p-002563: 0.96
- Rq mmu-miR-543-001298: 2.644
- Rq mmu-miR-543-002376: 1.81
- Rq mmu-miR-544-002550: 1.001
- Rq mmu-miR-574-3p-002349: 0.667
- Rq mmu-miR-652-002352: 0.626
- Rq mmu-miR-665-002607: 1.683
- Rq mmu-miR-669a-001683: 0.678
- Rq mmu-miR-673-3p-002449: 1.562
- Rq mmu-miR-673-001954: 2.031
- Rq mmu-miR-674#-001956: 0.857
- Rq mmu-miR-674-002021: 0.846
- Rq mmu-miR-675-3p-001941: 1.258
- Rq mmu-miR-682-001666: 0.702
- Rq mmu-miR-690-001677: 0.744
- Rq mmu-miR-706-001641: 0.75
- Rq mmu-miR-708-002341: 0.636
- Rq mmu-miR-720-001629: 0.905
- Rq mmu-miR-802-002029: 0.245
- Rq mmu-miR-805-002045: 1.066
- Rq mmu-miR-1274a-121150_mat: 1.138
- Rq mmu-miR-1941-3p-121130_mat: 2.166
- Rq mmu-miR-1943-121174_mat: 0.831
- Rq mmu-miR-1944-121189_mat: 0.877
- Rq mmu-miR-2146-241082_mat: 1.113
- Rq mmu-miR-30d-000420: 0.701
- Rq rno-miR-1-002064: 0.911
- Rq rno-miR-7#-001338: 0.751
- Rq rno-miR-7a#-002062: 0.863
- Rq rno-miR-20b-001326: 0.491
- Rq rno-miR-29c#-001818: 0.826
- Rq rno-miR-204#-002076: 0.729
- Rq rno-miR-224-000599: 1.144
- Rq rno-miR-345-3p-002061: 0.859
- Rq rno-miR-351-002063: 1.366
- Rq rno-miR-379#-002081: 1.563
- Rq rno-miR-381-001322: 1.107
- Rq rno-miR-489-001353: 0.626
- Rq rno-miR-664-001323: 0.638
